Measurements as given in patent EP1464336A1, “Use of tryprostatin A for the reversal of cancer drug resistance” (Humboldt-Universität zu Berlin, priority 2003, dated 2004).

Columns and labels:
Assay type in all cases: cell-based, human
[1] = system: P-gp-expressing, classical MDR variant EPG85-257RDB; assay: Mitoxantrone accumulation assay (flow cytometry); details: TPS-A (Fig 4A)
Experimental: (§1) Cellular mitoxantrone accumulation was determined according to the procedure described in Lage H et al., FEBS Lett 2001;503:179-84. Briefly, 4 x 10^5 cells were seeded out in 6-well plates 78 hours prior to the experiment. Incubation with mitoxantrone (0, 1,5 and 10 µg/ml) was performed for 60 minutes at 37°C and 70-80 % cellular confluence. For kinetics of intracellular enrichment of mitoxantrone, cells were exposed to 10 µg/ml mitoxantrone for 0, 5, 10 and 60 min. Cells were washed with ice-cold PBS, trypsinized and resuspended in 4 °C PBS at a concentration of 4 x 10^5 cells/ml. Intracellular fluorescence of mitoxantrone was determined by flow cytometry (Becton-Dickinson, San Jose, CA). The cells were excited at 480 nm and emission was measured at 630 nm. A minimum of 10^4 cells was analyzed for each sample. All assays were performed at least in three independent experiments, each time with triplicate wells.
(§2) To provide confirmation that the observed resensitization to mitoxantrone of BCRP-overexpressing cells was indeed the result of BCRP inhibition by TPS-A, a mitoxantrone accumulation assay was performed. The known so-called "multispecific" MDR modulator GF120918, inhibiting P-gp- and BCRP activity, was used as a positive control for P-gp- and BCRP antagonism.

[2] = system: BCRP-positive, atypical MDR gastric carcinoma cell line EPG85-257RNOV; assay: Mitoxantrone accumulation assay (flow cytometry); details: 10 µM TPS-A; mitoxantrone 60 min at 37 °C (Fig 4A)
Experimental: as §1, §2

MCF-7/AdrVp = assay: Mitoxantrone accumulation assay (flow cytometry); details: 50 µM TPS-A
Experimental: as §1, §2

[3] = system: BCRP-transfected cell variant MCF-7/BCRP clone 8; assay: Mitoxantrone accumulation assay (flow cytometry); details: 50 µM TPS-A; compared to drug accumulation level in the untreated, parental control cell line (Fig 4B)
Experimental: as §1, §2

[4] = system: parental, drug-sensitive gastric carcinoma cell variant EPG85-257P; assay: Mitoxantrone accumulation assay (flow cytometry); details: TPS-A (Fig 4A)
Experimental: as §1, §2

[5] = system: drug-sensitive, parental cell line MCF-7; assay: Mitoxantrone accumulation assay (flow cytometry); details: increasing modulator concentrations
Experimental: as §1, §2

[6] = system: BCRP overexpressing cells (EPG85-257RNOV); assay: C6-NBD-PS outward translocation assay; details: pretreatment with 10 µM inhibitor; 30 minutes at 37°C (Fig. 8)
Experimental: (§3) To measure redistribution of C6-NBD-PS from the cytoplasmic to the exoplasmic leaflet, labelling of the cytoplasmic leaflet is preconditional. Previously, we have introduced a method to achieve efficient labeling of the plasma membrane inner leaflet of the gastric carcinoma cell line EPG85-257 (Pohl, A., Lage, H., Müller, P., Pomorksi, T., and Herrmann. A. (2002) Biochem. J. 365, 259-268). Briefly, cells were preincubated with or without MDR inhibitors, labelled with 5 µM C6-NBD-PS, and incubated at 20°C for 30 minutes to allow inward movement of the NBD analogue. C6-NBD-PS remaining on the cell surface was extracted twice by incubation with 2% (w/v) BSA in mPBS for 10 minutes on ice. Before starting the outward translocation assay, the medium was removed, and cells were washed with ice-cold mPBS. For t=0', ice-cold medium containing 2% (w/v) BSA and 5 mM DFP ( = diisopropyl fluoro-phosphate) in mPBS with or without inhibitor was immediately added to the cell dish for 10 minutes. To measure C6-NBD-PS outward translocation, medium prewarmed to 37°C was added to the dish, and cells were incubated at 37°C for 30 minutes (t = 30'). Removal of the BSA-containing media and a second extraction with 2% BSA in mPBS for 10 minutes terminated incubations, followed by lipid analysis.
(§4) After the incubations, the second BSA back exchange medium was pooled with the first, and cells scraped into mPBS. For analysis of outward translocation and of metabolic conversion of C6-NBD-PS, lipids from both scraped cells and media were extracted with isopropanol/chloroform/(5.5:1, v/v) to prevent substantial loss into the aqueous phase. Samples were centrifuged at 780 g for 5 minutes, the supernatant transferred into new glass tubes and dried, dissolved in chloroform/methanol (1:1) and quantified spectroscopically. For C6-NBD-PC analysis, lipids from both cells and incubation media were extracted by the method of Bligh and Dyer (Bligh, E., and Dyer, W. (1959) Can. J Biochem. Physiol. 37, 911-917) using 20 mM acetic acid in the aqueous phase. After 2-D separation [I, chloroform/methanol/25% ammonium hydroxide (65:25:4, v/v); II, chloroform/acetone/methanol/acetic acid/water (10:4:2:2:1, v/v)] on thin layer chromatography plates, fluorescent lipid spots were visualized under ultraviolet light, scraped, and quantified as described before (Pomorski, T., Müller, P., Zimmermann, B., Burger, K., Devaux, P., and Herrmann, A. (1996) J. Cell Sci. 109, 687-698).

[7] = system: MDR1 Pgp overexpressing subline (EPG85-257RDB); assay: C6-NBD-PS outward translocation assay; details: 10 µM inhibitor; 30 minutes at 37°C (Fig. 8)
Experimental: as §3, §4

[8] = system: drug-sensitive and drug-resistant gastric and breast cancer cell lines; assay: Cytotoxicity of the MDR modulators alone (SRB proliferation assay); details: for growth inhibitory effect / cytotoxic side effects: 10 µM TPS-A alone, any of the drug-sensitive or drug-resistant cancer cell lines tested
Experimental: Modulation of chemoresistance was tested using a proliferation assay based on sulforhodamine B (SRB), a protein-binding reagent (Skehan P et al., J Natl Cancer Inst 1990;82:1107-12), as described in Lage H et al., Int J Hyperthermia 2000;16:291-303; Lage H et al., FEBS Lett 2001;503:179-84; Lage H et al., FEBS Lett 2001;494:54-9. In each experiment, 350 cells per well were seeded in the presence or absence of TPS-A in 96-well plates in complete medium and allowed to attach overnight. Mitoxantrone or daunorubicin were added in a dilution series in triplicate wells. After 5 days, when unselected wells were still subconfluent, incubation was terminated by replacing the medium with 10 % trichloroacetic acid, followed by incubation at 4 °C for 1 h. After samples were washed 5 times with water and air-dried, 50 µl 0.4 % SRB (Sigma, St. Louis, MO) in 1 % acetic acid was added and samples were incubated for 10 min at room temperature. Unbound dye was eliminated by washing the plates 5 times with 1 % acetic acid. After air-drying and re-solubilisation of the protein-bound dye in 10 mM Tris-HCl (pH 8.0), absorbance was quantified at 562.5 nm. To determine the IC50-value, the absorbance difference of control cells without drug was set to be 100 %. Linear regression of data was done for the linear part of the curve, and IC50-values were calculated from multiple, at least three independent experiments for each cell line.
The cytotoxicity of the MDR modulators TPS-A and GF120918 on drug-sensitive and drug-resistant gastric and breast cancer cell lines was initially assessed.

COc1ccc2c(C[C@@H]3NC(=O)[C@@H]4CCCN4C3=O)c(CC=C(C)C)[nH]c2c1 [TPS-A, tryprostatin A]
drug transporter inhibiting effect (mitoxantrone accumulation) [1]: No significant drug transporter inhibiting effect
increase to % of the mitoxantrone accumulation level of untreated drug-sensitive cells [2]: 40%
increase of drug accumulation with respect to control cells (MCF-7/AdrVp): 45%
inhibition of the mitoxantrone pump activity [3]: completely
mitoxantrone accumulation [4]: slightly increased mitoxantrone accumulation
effect on drug accumulation [5]: only a weak dosage-depending effect
amount of C6-NBD-PS in the BSA containing medium (outward translocation) [6]: sharp and highly significant decrease
PS analogue outward translocation (MDR1 Pgp lipid transport activity) [7]: did not affect
growth inhibitory effect / cytotoxic side effects [8]: no growth inhibitory effect
growth inhibitory effect / cytotoxic side effects ([8]; listed as tryprostatin A): without showing any cytotoxic side effects
cytotoxicity ([8]; TPS-A concentration range 1-100 µM): does not show any cytotoxicity
cross-resistance to the MDR modulator ([8]; multidrug-resistant tumor cell lines): No evidence of cross-resistance
